Data: ChEMBL document CHEMBL1158611, “Trichoderins, novel aminolipopeptides from a marine sponge-derived Trichoderma sp., are active against dormant mycobacteria” (2010)
≈ marks a conversion by molar mass, not a printed value. *1 amine or outer side, *2 acyl side, *3 side chain or, on linkers, in order; H or OH if unused. Where a SMILES comes first, the peptide text is derived from it. [ ]: non-standard residue; d: D form. The star is where a group is joined. X2 = CCC(=O)C[C@@H](O)C[C@@H](C)C[C@H](N[*:1])C(=O)[*:2]; X1 = CCC(=O)/C=C/C[C@@H](C)C[C@H](N[*:1])C(=O)[*:2]; Alaψ(CH2NMeCH2CH2OH) = C[C@@H](CN(C)CCO)N*; Decanoyl(2R-Me) = CCCCCCCC[C@@H](C)C(=O)*; Aib = CC(C)(N)C(=O)O

Key:
[1] = test system: Mycobacterium tuberculosis; experiment: Antimycobacterial activity against Mycobacterium bovis BCG under aerobic condition; format: functional; details: variant bovis BCG
[2] = test system: Mycobacterium tuberculosis; experiment: Antimycobacterial activity against Mycobacterium bovis BCG under dormancy-inducing hypoxic condition; format: functional; details: variant bovis BCG

SMILES	MIC [1] [µg/mL]	MIC [2] [µg/mL]
NNC(=O)c1ccncc1 [ISONIAZID]	0.03 (≈ 0.219 µM)	> 100
CCCCCCCC[C@@H](C)C(=O)N1CCC[C@H]1C(=O)N[C@@H](C[C@H](C)C/C=C/C(=O)CC)C(=O)NC(C)(C)C(=O)NC(C)(C)C(=O)N[C@H](C(=O)N[C@H](C(=O)NC(C)(C)C(=O)NC(C)(C)C(=O)N[C@@H](C)CN(C)CCO)C(C)C)[C@@H](C)CC [TRICHODERIN A1] ({Decanoyl(2R-Me)}-P[X1][Aib][Aib]IV[Aib][Aib]-{Alaψ(CH2NMeCH2CH2OH)})	0.16 (≈ 0.14 µM)	0.16 (≈ 0.14 µM)
CCCCCCCC[C@@H](C)C(=O)N1CCC[C@H]1C(=O)N[C@@H](C[C@H](C)C[C@H](O)CC(=O)CC)C(=O)NC(C)(C)C(=O)NC(C)(C)C(=O)N[C@H](C(=O)N[C@H](C(=O)NC(C)(C)C(=O)NC(C)(C)C(=O)N[C@@H](C)CN(C)CCO)C(C)C)[C@@H](C)CC [TRICHODERIN A] ({Decanoyl(2R-Me)}-P[X2][Aib][Aib]IV[Aib][Aib]-{Alaψ(CH2NMeCH2CH2OH)})	0.02 (≈ 0.0172 µM)	0.02 (≈ 0.0172 µM)
CCCCCCCC[C@@H](C)C(=O)N1CCC[C@H]1C(=O)N[C@@H](C[C@H](C)C[C@H](O)CC(=O)CC)C(=O)NC(C)(C)C(=O)NC(C)(C)C(=O)N[C@H](C(=O)N[C@H](C(=O)NC(C)(C)C(=O)NC(C)(C)C(=O)N[C@@H](C)CN(C)CCO)C(C)C)C(C)C [TRICHODERIN B] ({Decanoyl(2R-Me)}-P[X2][Aib][Aib]VV[Aib][Aib]-{Alaψ(CH2NMeCH2CH2OH)})	0.02 (≈ 0.0174 µM)	0.02 (≈ 0.0174 µM)
